Laboratory results: ChEMBL document CHEMBL5465560, “Selectivity Literature for EUbOPEN Chemogenomic Library” (2024)
One block for each molecule: values may come before it.

Tests used:
[1] = target: Epidermal growth factor receptor (Homo sapiens, UniProt P00533); assay: Selectivity interaction (Enyzmatic assay) EUB0000601a EGFR
[2] = target: Serine/threonine-protein kinase SIK2 (Homo sapiens) (UniProt Q9H0K1); settings: at 10 µM
[3] = target: RAF proto-oncogene serine/threonine-protein kinase (Homo sapiens) (UniProt P04049); settings: at 10 µM
[4] = target: T1, Megakaryocyte-associated tyrosine-protein kinase (Homo sapiens) (UniProt P42679); assay: Selectivity interaction (KinomeScan (DiscoverX)) EUB0000618a MATK; settings: at 10 µM
T1 sequence (whole entry): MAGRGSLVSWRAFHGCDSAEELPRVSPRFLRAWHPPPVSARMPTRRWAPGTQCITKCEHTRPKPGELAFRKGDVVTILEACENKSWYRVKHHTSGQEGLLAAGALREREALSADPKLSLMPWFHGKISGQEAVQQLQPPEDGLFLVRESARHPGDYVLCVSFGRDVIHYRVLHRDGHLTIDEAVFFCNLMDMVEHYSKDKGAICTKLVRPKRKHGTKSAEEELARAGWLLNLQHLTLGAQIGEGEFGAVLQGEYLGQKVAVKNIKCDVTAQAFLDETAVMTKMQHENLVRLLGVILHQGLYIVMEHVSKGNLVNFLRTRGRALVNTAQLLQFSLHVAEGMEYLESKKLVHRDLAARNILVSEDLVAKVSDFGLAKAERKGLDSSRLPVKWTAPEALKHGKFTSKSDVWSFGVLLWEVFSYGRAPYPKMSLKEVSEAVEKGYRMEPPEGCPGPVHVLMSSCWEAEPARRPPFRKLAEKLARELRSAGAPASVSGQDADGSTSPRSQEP

[5] = target: Cyclin-dependent kinase 2 (Homo sapiens, UniProt P24941); assay: Selectivity interaction (Kinase panel (DSF assay)) EUB0001558a CDK2
[6] = target: T2, Phosphorylase b kinase gamma catalytic chain, liver/testis isoform (Homo sapiens) (UniProt P15735); assay: Selectivity interaction (KinomeScan (DiscoverX)) EUB0000045b PHKG2
T2 sequence (whole entry): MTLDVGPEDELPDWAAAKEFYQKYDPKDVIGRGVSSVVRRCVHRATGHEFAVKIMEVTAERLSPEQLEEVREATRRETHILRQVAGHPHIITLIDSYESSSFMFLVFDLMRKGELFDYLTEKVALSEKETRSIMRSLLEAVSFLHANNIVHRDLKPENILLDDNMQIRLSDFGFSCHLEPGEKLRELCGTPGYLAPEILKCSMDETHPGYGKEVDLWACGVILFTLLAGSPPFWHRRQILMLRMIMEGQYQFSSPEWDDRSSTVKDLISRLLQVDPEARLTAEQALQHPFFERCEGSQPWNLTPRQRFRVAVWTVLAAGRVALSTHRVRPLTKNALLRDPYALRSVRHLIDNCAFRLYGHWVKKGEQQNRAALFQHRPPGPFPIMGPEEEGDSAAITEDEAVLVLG

[7] = target: T3, Myotonin-protein kinase (Homo sapiens) (UniProt Q09013); assay: Selectivity interaction (KinomeScan (DiscoverX)) EUB0000229b DMPK; settings: at 10 µM
T3 sequence (whole entry): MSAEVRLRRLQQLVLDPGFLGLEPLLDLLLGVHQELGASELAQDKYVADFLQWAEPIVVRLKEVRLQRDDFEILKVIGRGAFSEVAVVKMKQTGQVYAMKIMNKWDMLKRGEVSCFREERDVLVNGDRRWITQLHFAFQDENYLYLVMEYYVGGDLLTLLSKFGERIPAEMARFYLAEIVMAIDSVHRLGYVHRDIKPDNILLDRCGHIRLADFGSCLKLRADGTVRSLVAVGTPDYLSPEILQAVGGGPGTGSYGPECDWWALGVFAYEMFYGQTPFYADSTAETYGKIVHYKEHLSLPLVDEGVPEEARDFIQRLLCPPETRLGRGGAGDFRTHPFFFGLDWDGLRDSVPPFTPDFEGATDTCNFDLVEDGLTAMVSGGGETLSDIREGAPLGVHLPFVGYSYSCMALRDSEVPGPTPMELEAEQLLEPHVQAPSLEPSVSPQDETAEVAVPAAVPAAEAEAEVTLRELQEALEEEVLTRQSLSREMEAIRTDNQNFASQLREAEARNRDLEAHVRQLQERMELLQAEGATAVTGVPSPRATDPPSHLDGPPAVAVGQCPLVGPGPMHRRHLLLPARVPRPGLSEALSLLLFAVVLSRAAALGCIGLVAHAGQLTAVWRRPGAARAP

[8] = target: MAP kinase-activated protein kinase 2 (Homo sapiens, UniProt P49137); assay: Selectivity interaction (ProQinase) EUB0000171b MAPKAPK2
[9] = target: Phosphatidylinositol 4,5-bisphosphate 3-kinase catalytic subunit gamma isoform (Homo sapiens) (UniProt P48736); assay: Selectivity interaction (ProQinase) EUB0000171b PIK3CG
MAO-B (MAOB) = MAO-B (MAOB) (Homo sapiens, UniProt P27338); assay: Selectivity interaction (Panel of kinases, GPCRs, ion channels and transporters (enzymatic assay)) EUB0000266bCl MAOB
[10] = target: T4, Serine/threonine-protein kinase MAK (Homo sapiens) (UniProt P20794); assay: Selectivity interaction (KinomeScan (DiscoverX)) EUB0000666a MAK; settings: at 10 µM
T4 sequence (whole entry): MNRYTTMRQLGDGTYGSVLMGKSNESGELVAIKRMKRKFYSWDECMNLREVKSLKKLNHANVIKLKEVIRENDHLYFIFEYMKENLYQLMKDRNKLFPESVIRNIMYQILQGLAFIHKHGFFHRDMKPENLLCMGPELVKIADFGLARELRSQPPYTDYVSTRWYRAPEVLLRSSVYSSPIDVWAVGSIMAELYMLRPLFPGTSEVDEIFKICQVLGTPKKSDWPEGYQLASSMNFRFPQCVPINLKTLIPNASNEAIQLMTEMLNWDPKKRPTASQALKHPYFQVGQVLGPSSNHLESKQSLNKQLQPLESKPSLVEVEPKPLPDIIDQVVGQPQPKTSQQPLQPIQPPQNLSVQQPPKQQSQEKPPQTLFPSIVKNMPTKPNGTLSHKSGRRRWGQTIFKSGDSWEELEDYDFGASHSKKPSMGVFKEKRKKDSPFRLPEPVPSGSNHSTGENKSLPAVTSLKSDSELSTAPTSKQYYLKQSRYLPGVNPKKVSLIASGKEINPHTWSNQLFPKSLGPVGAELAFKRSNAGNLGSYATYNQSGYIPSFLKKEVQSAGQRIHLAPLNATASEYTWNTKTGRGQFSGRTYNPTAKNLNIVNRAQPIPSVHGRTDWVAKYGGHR

[11] = target: Phosphatidylinositol 4-phosphate 5-kinase type-1 alpha (Homo sapiens) (UniProt Q99755); assay: Selectivity interaction (KinomeScan (DiscoverX)) EUB0000092b PIP5K1A; settings: at 10 µM
[12] = target: Receptor-interacting serine/threonine-protein kinase 3 (Homo sapiens) (UniProt Q9Y572); assay: Selectivity interaction (LanthaScreen Eu Kinase Binding Assay) EUB0001632a RIPK3; settings: at 10 µM
Receptor-interacting serine/threonine-protein kinase 3 (Homo sapiens), sequence (Q9Y572 whole entry, looked up): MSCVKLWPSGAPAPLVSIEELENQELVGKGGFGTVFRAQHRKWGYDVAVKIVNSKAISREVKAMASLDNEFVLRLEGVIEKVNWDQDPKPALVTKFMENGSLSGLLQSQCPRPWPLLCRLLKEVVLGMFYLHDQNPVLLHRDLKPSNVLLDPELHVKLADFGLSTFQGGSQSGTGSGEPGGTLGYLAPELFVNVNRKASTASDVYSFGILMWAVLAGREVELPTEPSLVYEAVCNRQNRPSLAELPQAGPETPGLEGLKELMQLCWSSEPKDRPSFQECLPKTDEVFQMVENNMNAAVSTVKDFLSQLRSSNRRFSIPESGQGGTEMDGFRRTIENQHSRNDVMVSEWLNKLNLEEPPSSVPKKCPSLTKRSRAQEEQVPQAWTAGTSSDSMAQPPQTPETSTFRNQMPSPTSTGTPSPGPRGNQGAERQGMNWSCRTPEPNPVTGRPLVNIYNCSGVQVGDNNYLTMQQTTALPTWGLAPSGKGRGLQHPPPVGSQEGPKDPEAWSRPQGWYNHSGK

Phosphatidylinositol 4,5-bisphosphate 3-kinase catalytic subunit gamma isoform (Homo sapiens), sequence (P48736 whole entry, looked up, canonical isoform): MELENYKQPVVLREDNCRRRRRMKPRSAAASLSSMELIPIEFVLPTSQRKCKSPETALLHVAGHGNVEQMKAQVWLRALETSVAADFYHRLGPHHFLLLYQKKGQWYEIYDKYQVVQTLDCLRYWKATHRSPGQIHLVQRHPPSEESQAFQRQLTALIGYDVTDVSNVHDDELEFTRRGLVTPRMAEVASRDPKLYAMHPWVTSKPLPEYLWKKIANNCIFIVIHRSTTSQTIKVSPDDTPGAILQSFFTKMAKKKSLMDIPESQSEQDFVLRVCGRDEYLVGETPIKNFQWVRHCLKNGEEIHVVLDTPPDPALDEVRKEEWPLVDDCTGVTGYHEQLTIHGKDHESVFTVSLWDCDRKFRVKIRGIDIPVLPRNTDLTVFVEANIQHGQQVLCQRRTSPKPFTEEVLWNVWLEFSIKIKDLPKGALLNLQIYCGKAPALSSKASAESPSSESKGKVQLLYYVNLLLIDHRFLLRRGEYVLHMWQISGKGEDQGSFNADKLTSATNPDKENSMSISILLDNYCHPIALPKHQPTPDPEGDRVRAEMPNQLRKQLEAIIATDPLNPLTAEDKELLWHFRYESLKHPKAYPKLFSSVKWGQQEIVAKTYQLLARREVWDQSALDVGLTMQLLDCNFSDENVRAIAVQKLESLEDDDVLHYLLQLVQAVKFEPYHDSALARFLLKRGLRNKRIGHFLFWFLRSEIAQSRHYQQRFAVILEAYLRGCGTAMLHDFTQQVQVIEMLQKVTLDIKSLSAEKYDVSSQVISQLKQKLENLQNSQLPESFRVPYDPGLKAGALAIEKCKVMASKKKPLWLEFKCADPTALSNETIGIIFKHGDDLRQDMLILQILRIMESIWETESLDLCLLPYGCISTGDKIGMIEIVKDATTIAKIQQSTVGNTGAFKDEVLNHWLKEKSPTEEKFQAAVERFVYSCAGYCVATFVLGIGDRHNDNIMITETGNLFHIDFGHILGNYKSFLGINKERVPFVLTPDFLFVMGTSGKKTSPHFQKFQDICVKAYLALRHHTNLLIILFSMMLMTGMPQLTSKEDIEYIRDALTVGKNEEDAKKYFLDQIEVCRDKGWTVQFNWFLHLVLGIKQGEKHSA
MAP kinase-activated protein kinase 2, sequence (P49137 whole entry, looked up, canonical isoform): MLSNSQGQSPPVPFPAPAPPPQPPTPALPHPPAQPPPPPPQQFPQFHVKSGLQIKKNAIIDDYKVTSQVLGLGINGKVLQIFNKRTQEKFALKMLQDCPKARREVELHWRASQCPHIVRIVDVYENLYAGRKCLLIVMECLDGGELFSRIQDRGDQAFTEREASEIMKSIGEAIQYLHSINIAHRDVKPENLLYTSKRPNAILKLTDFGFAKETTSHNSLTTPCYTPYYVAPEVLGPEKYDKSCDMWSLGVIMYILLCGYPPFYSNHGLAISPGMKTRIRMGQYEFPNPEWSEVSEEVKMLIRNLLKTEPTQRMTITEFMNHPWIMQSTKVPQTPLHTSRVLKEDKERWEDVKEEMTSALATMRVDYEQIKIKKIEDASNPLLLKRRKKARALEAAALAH
MAO-B (MAOB), sequence (P27338 whole entry): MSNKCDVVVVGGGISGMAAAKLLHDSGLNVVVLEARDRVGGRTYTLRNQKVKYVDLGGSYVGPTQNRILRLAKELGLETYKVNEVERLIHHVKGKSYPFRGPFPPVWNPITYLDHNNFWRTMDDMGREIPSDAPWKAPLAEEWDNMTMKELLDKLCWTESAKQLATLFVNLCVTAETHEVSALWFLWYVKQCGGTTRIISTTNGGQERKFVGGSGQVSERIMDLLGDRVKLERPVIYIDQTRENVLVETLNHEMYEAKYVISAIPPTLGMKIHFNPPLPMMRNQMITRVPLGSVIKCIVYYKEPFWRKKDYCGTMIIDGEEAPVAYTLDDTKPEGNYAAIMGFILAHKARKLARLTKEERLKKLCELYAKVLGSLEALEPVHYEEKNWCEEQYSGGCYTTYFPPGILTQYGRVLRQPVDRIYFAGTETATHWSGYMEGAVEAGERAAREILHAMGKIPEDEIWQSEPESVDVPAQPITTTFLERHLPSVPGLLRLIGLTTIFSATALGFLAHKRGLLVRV
Serine/threonine-protein kinase SIK2 (Homo sapiens), sequence (Q9H0K1 whole entry, looked up): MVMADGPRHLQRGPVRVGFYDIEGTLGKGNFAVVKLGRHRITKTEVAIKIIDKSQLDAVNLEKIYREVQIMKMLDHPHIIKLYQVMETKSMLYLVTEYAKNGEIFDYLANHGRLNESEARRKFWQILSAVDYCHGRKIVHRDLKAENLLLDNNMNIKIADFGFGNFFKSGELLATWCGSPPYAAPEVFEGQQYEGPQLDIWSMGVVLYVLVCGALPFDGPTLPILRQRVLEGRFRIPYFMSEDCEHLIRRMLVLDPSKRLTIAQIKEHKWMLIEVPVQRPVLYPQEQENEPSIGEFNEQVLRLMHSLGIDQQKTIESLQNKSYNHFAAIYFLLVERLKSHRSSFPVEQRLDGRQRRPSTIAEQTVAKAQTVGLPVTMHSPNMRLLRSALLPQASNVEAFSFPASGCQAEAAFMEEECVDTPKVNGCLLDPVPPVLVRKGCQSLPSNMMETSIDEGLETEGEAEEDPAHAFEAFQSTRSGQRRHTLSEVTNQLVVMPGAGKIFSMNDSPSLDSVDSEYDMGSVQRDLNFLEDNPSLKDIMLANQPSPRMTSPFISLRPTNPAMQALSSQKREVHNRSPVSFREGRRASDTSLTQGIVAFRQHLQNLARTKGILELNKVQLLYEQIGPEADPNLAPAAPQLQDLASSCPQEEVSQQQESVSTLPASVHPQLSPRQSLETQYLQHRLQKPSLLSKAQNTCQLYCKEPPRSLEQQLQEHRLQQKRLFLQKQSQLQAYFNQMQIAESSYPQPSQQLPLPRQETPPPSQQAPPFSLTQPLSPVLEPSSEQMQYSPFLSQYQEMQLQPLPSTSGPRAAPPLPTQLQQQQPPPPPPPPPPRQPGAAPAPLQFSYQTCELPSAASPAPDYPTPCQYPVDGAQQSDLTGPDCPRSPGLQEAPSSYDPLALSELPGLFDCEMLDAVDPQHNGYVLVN
RAF proto-oncogene serine/threonine-protein kinase (Homo sapiens), sequence (P04049 whole entry): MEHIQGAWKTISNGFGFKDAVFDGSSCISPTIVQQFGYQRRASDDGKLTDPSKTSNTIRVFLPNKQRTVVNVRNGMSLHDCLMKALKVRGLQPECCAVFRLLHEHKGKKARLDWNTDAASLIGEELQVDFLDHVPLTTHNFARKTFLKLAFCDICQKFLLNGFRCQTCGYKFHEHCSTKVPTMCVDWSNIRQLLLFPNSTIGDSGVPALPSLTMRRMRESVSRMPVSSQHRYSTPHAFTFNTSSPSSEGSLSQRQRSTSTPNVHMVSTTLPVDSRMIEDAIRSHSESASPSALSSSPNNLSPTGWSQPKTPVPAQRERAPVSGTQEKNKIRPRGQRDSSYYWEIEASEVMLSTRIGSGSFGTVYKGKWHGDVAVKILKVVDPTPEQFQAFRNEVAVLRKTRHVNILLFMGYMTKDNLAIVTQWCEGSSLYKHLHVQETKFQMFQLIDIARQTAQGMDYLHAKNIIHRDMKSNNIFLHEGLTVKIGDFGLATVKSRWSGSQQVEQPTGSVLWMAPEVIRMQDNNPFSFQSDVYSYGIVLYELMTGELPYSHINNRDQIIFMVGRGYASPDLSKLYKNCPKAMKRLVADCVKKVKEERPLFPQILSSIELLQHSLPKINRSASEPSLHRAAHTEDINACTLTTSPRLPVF
Phosphatidylinositol 4-phosphate 5-kinase type-1 alpha (Homo sapiens), sequence (Q99755 whole entry): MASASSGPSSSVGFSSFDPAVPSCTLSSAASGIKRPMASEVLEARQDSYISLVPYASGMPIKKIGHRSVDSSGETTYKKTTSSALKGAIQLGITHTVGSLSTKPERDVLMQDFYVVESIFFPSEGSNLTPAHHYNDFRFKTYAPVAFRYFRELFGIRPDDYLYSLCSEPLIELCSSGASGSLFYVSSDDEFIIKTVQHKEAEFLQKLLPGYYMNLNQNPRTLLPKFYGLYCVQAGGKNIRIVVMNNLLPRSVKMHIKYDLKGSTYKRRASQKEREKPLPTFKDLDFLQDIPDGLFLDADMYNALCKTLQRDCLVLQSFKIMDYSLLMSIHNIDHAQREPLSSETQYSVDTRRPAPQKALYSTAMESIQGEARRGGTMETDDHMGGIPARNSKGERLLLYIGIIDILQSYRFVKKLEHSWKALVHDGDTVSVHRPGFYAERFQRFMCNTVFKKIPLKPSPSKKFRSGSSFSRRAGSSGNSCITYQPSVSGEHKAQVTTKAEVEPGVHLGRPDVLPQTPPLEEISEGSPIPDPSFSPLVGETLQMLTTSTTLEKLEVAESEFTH

IC50 [1]: > 10 µM
SMILES: CCc1cc(Nc2nccc(-c3c(-c4ccc(OC)c(C(=O)Nc5c(F)cccc5F)c4)nc4ccccn34)n2)c(OC)cc1N1CCC(N2CCN(S(C)(=O)=O)CC2)CC1

% of control [2]: 100%
SMILES: CCN(CC)CCCCNc1ncc2cc(-c3cc(OC)cc(OC)c3)c(NC(=O)NC(C)(C)C)nc2n1

SMILES: CN(C)CCOc1ccc(-c2nc(-c3ccncc3)c(-c3ccc4c(c3)CC/C4=N\O)[nH]2)cc1
% of control [3]: 0%

SMILES: O[C@H]1CC[C@H](Nc2ncc3nc(Nc4c(F)cc(F)cc4F)n([C@H]4CCOC4)c3n2)CC1
% of control [4]: 95%

SMILES: CC(C)(O)[C@H](F)CN1Cc2cc(NC(=O)c3cnn4cccnc34)c(N3CCOCC3)cc2C1=O
dTM [5]: 0.1 K

SMILES: C=CC(=O)Nc1cc(-n2c(=O)ccc3cnc4ccc(-c5ccc(NS(C)(=O)=O)cc5)cc4c32)ccc1C
% of control ([6]; at 1 µM): 74%
% of control ([6]; at 10 µM): 88%

SMILES: COc1cc(N(C)c2ccnc3ccc(C(F)(F)F)cc23)cc(OC)c1OC
% binding [7]: 87%

% of control ([8]; at 1 µM): 71%
% of control ([8]; at 5 µM): 42%
% of control ([9]; at 1 µM): 176%
% of control ([9]; at 5 µM): 156%
SMILES: C=CC(=O)Nc1cccc(C(=O)Nc2ccc(Nc3cc(-c4[nH]c(SC)nc4C)ccn3)cc2)c1

XC50 (MAO-B (MAOB)): 20 µM
SMILES: CCn1c(-c2nc3cc(C(=O)N4CCCC(N)C4)ccc3n2C)cc2ccccc21 (stereo unspecified)

SMILES: O=C(NOC[C@H](O)CO)c1ccc(F)c(F)c1Nc1ccc(I)cc1F
% of control [10]: 100%

SMILES: CCC(=O)N1CCN(c2ccc(-n3c(=O)ccc4cnc5ccc(-c6cnc7ccccc7c6)cc5c43)cc2C(F)(F)F)CC1
% of control [11]: 89%

% of inhibition [12]: -15.4%
SMILES: Cn1cc(-n2cnc3c(NCc4nc5cc(Cl)c(Cl)cc5[nH]4)nc(N4CCOCC4)nc32)cn1
